Measurements: the NIST ThermoML archive (doi:10.1021/je100861u)
Numbers after ± are expanded uncertainties.

What was measured:
[1] = Liquid; Distillation
[2] = refractive index (Na D-line) (dimensionless); conditions: 293.15 K; 101.33 kPa; Liquid; Standard Abbe refractometry

| Compound | Normal boiling temperature [1] | refractive index [2] |
| --- | --- | --- |
| CC(=O)C(C)O (centres undefined) [2,3-butanolone] | 148.38 ± 0.54 °C | 1.4198 ± 0.0008 |
| CCCCOC(C)=O [butyl ethanoate] | 125.96 ± 0.5 °C | 1.3941 ± 0.0007 |
